Source: publication PMC3280264 (PLoS ONE, 2012)
Marks after values point to notes of the source that are not given here.

Experiments:
[1] = system: ZDF rats; experiment: 4-week treatment of ZDF rats (glycemic control, OGTT); type: in vivo, rat; conditions: 4 weeks; for OGTT Ratio of insulin AUC/glucose AUC / Insulin / HbA1c / OGTT Plasma insulin (AUC0–120 min) / Fed plasma glucose / OGTT Blood glucose (AUC0–120 min): ZDF rats; for OGTT Ratio of insulin AUC/glucose AUC: vehicle 0.003±0.000; for Insulin: vehicle 5.2±0.4; for HbA1c: vehicle 11.5±0.3; for OGTT Plasma insulin (AUC0–120 min): vehicle 221±13; for Fed plasma glucose: vehicle 598.2±18.0; for OGTT Blood glucose (AUC0–120 min): vehicle 70,704±1289
From the text: (§1) Four rodent models were used in these experiments: (1) male C57BL/6J mice fed with a high-fat diet (D-12492 with 60 kcal% fat, Research Diets, Inc, New Jersey, USA) (diet-induced obese, insulin resistantmice [DIO]); (2) male C57BL/ksj-db/db hyperglycemic mice; (3) male Zucker fatty (ZF) obese, insulin resistant rats; and (4) male ZDF obese, hyperglycemic rats. All animals were housed according to standard procedures following a protocol approved by the IACUC in Drug Discovery at Johnson & Johnson Pharmaceutical Research & Development, LLC.
(§2) BG levels were monitored at 0, 0.5, 1, 3, 6, and 24 hours after dosing. […] BG levels were monitored weekly, and HbA1c, plasma glucose, and insulin levels were determined at the end of the 4-week treatment. An oral glucose tolerance test (OGTT) ([…] of body weight, given by gavage) was conducted in ZDF rats after 4 weeks of treatment. Blood was sampled at 0, 30, 60, and 120 minutes after glucose challenge from the tail vein for measurement of BG levels using a glucometer (One Touch Ultra, LifeScan, Milpitas, California, USA) and plasma insulin using ELISA method (ALPCO, Salem, New Hampshire, USA).

[2] = biological target: Rat SGLT2 (Rattus norvegicus, UniProt P53792); experiment: cell-based
Rat SGLT2, sequence (P53792 whole entry): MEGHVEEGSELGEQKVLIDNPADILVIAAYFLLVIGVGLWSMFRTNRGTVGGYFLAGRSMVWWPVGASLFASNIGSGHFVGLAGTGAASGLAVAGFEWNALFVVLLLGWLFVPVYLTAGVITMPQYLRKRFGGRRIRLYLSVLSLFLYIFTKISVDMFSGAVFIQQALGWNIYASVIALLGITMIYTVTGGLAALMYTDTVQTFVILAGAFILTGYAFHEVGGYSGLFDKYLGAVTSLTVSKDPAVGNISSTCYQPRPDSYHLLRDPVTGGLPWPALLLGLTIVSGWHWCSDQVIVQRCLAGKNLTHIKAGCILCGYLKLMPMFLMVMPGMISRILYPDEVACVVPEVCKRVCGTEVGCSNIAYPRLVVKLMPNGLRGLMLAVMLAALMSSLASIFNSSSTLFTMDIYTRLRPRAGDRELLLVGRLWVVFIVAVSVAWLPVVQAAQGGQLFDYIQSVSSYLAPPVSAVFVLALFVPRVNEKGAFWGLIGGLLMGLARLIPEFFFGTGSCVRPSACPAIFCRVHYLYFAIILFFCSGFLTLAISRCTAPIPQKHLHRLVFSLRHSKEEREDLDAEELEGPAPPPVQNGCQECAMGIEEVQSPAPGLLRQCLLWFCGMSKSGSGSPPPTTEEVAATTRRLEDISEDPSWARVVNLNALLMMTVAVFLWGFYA

[3] = system: db/db mice; experiment: Single-dose blood glucose lowering in db/db mice; type: in vivo, mouse; conditions: for reduction of BG levels compared with vehicle-treated mice: 1 hour after treatment; for BG level: 6 hours, vehicle 479±3.9
From the text: as §1, §2

[4] = biological target: T1, Human SGLT3 (Homo sapiens, UniProt Q9NY91); experiment: Two-electrode voltage clamp recording of oocytes expressing human SGLT3 (DNJ-induced currents); type: cell-based
T1 construct: expressed in transfected cells; host or cells: oocytes (from Nasco), injected with mRNA
T1 sequence (Q9NY91 1-659): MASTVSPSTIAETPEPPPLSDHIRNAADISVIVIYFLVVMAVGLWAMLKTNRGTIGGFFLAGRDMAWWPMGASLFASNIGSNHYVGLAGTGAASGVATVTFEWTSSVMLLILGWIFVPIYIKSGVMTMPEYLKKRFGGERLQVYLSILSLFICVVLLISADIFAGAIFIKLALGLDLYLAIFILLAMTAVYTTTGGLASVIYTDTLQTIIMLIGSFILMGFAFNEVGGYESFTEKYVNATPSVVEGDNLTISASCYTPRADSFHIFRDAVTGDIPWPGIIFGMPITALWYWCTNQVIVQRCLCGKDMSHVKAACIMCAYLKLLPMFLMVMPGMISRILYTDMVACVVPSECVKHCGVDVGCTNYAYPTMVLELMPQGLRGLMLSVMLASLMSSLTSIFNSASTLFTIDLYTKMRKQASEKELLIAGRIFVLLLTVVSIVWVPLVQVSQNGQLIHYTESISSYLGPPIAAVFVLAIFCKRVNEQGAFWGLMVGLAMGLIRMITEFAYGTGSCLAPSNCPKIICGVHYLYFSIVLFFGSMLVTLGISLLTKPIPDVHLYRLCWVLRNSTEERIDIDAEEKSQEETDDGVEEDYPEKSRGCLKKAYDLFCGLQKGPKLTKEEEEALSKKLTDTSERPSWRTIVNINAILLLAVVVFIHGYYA
Method: Oocytes were obtained from Nasco (Fort Atkinson, Wisconsin, USA). Stage V–VI oocytes were injected with 50 nl of either human SGLT3 mRNA (at 1 ng/nl) or distilled water (control) and incubated at 18°C in a calcium-free solution (92 mM NaCl, 2 mM KCl, 1 mM MgCl2, 5 mM HEPES, 0.05 mg/ml gentamicin at pH 7.5) for 4–6 days before recording. The extracellular recording solution contained 92 mM NaCl, 2 mM KCl, 1.8 mM CaCl2, 1 mM MgCl2, and 5 mM HEPES at pH 7.5. Injected oocytes were impaled with 2 microelectrodes filled with 3 M KCl (resistance of ∼0.5–3 MΩ) and voltage clamped to −120 mV, at which continuous recordings were made (filtered at 5 kHz and sampled at 625 Hz). To establish the baseline in the absence of agonist, oocytes were first perfused for 85 seconds with a control buffer (92 mM NaCl, 2 mM KCl, 1.8 mM CaCl2, 1 mM MgCl2, 5 mM HEPES at pH 7.5). […] Finally, phlorizin (3 mM) was applied in the presence of 50 µM DNJ for 160 seconds. All experiments were performed at 22°C. Currents in the presence of 50 µM DNJ were subtracted from leak currents (currents in control buffer alone) to obtain DNJ-induced currents (IDNJ). Effects of compounds were calculated as: % Inhibition = 100×(IDNJ−Icmpd)/IDNJ, where Icmpd is the DNJ-induced and leak-subtracted current in the presence of a compound or DMSO. Due to lack of effect at the highest dose tested, a dose-response relationship was not examined.

[5] = system: ZF rats; experiment: 3-week treatment of ZF rats (body weight, UGE, calorimetry); type: in vivo; conditions: ZF rat, 3 mg/kg, 3 weeks
From the text: as §1
Body weight, food intake, and BG levels were monitored weekly. UGE and indirect calorimetry were conducted in the fourth week of treatment during the compound treatment. […] Body weight, food intake, and BG were measured weekly during the 19-day treatment period. UGE, body fat, and indirect calorimetric studies were conducted at the end of this study.

Cc1ccc([C@@H]2O[C@H](CO)[C@@H](O)[C@H](O)[C@H]2O)cc1Cc1ccc(-c2ccc(F)cc2)s1 [canagliflozin, Canagliflozin]
OGTT Ratio of insulin AUC/glucose AUC ([1]; 3 mg/kg): 0.013±0.002 ^a (ng/ml•min)/mg/dl•min) | Insulin ([1]; 3 mg/kg): 7.9±0.1 ^a ng/ml | HbA1c ([1]; 3 mg/kg): 7.1±0.3 ^a % | OGTT Plasma insulin (AUC0–120 min) ([1]; 3 mg/kg): 342±27 ^a ng/ml•min | Fed plasma glucose ([1]; 3 mg/kg): 248.0±13.5 ^a mg/dl | OGTT Blood glucose (AUC0–120 min) ([1]; 3 mg/kg): 27,883±1806 ^a mg/dl•min | OGTT Ratio of insulin AUC/glucose AUC ([1]; 10 mg/kg): 0.017±0.002 ^a (ng/ml•min)/mg/dl•min) | Insulin ([1]; 10 mg/kg): 7.9±0.1 ^a ng/ml | HbA1c ([1]; 10 mg/kg): 5.6±0.3 ^a % | OGTT Plasma insulin (AUC0–120 min) ([1]; 10 mg/kg): 403±33 ^a ng/ml•min | Fed plasma glucose ([1]; 10 mg/kg): 182.0±7.1 ^a mg/dl | OGTT Blood glucose (AUC0–120 min) ([1]; 10 mg/kg): 23,989±1881 ^a mg/dl•min | OGTT Ratio of insulin AUC/glucose AUC ([1]; 30 mg/kg): 0.018±0.002 ^a (ng/ml•min)/mg/dl•min) | Insulin ([1]; 30 mg/kg): 7.8±0.1 ^a ng/ml | HbA1c ([1]; 30 mg/kg): 5.5±0.3 ^a % | OGTT Plasma insulin (AUC0–120 min) ([1]; 30 mg/kg): 288 ± 34 ng·min/mL | Fed plasma glucose ([1]; 30 mg/kg): 199.9±14.7 ^a mg/dl | OGTT Blood glucose (AUC0–120 min) ([1]; 30 mg/kg): 16,549±822 ^a mg/dl•min | increase in the insulin/glucose ratio following an OGTT, relative to vehicle-treated animals ([1]; ZDF rats, 3, 10 or 30 mg/kg): 4-to-6 fold | IC50 [2]: 3.7 nM | reduction of BG levels compared with vehicle-treated mice ([3]; single dose 1 mg/kg): 22% | BG level ([3]; single dose 1 mg/kg): 208 ± 9.6 mg/dL | reduction of BG levels compared with vehicle-treated mice ([3]; single dose 10 mg/kg): 36% | BG level ([3]; single dose 10 mg/kg): 118 ± 9.0 mg/dL | inhibition at 10 µM ([4]; 10 µM, SGLT3-injected oocytes, 50 µM DNJ, n = 9, DMSO 15.6±3.1%, difference not statistically significant): 23.4 ± 4.3% | effect on currents in sham-injected oocytes ([4]; 10 µM, sham (water)-injected oocytes, in the presence of 50 µM DNJ): did not affect currents | effect on DNJ-induced currents ([4]; oocytes expressing human SGLT3, column head IC50, nM): No inhibitory effect | Feeding efficiency index (body weight gain/food intake) ([5]; vehicle 0.30±0.01): 0.25±0.01 | RER ([5]; vehicle 1.10±0.01): 1.06±0.01 ^b | UGE ([5]; vehicle 1.8±1.1): 29.10±3.5 ^b mg/4 h | Epididymal fat weight ([5]; vehicle 10.8±0.3): 9.5±0.3 ^b g | Liver weight ([5]; vehicle 28.5±0.8): 25.0±1.4 ^b g | Fed BG ([5]; vehicle 149.6±22.9): 118.9±4.3 ^b mg/dl | Body weight ([5]; vehicle 437.9±11.5): 408.1±7.7 ^b g | Total food intake ([5]; vehicle 645.3±21.2): 647.9 ± 18.9 g | Oxygen consumption (VO2) ([5]; vehicle 1560±28): 26.37 ± 0.55 mL/min/kg
